The values that follow come from ChEMBL document CHEMBL5331084, “Structure-based lead optimization of peptide-based vinyl methyl ketones as SARS-CoV-2 main protease inhibitors” (Eur J Med Chem, 2023).

SMILES strings stand for the structures.

As usually defined, the EC50 is the concentration that produces a half-maximal response.

For this test, the system named is SARS-CoV-2. Briefly: microbe, parasite or virus in culture. Particulars: Severe acute respiratory syndrome coronavirus 2, Munich 929, Huh-7.
With `CCCC[C@H](NC(=O)OCc1ccccc1)C(=O)N[C@H](/C=C/C(C)=O)C[C@@H]1CCNC1=O`, the response was half-maximal at 18.5 µM (EC50).
For the molecule `CC(=O)/C=C/[C@H](C[C@@H]1CCNC1=O)NC(=O)[C@H](CC1CC1)NC(=O)OCc1ccccc1`, a half-maximal response (EC50) required 1.5 µM. This EC50 is about 12-fold lower than that of the molecule before.
Take `CC(=O)/C=C/[C@H](C[C@@H]1CCNC1=O)NC(=O)[C@H](CC1CCCCC1)NC(=O)OCc1ccccc1`: the midpoint of the response, the EC50, lay at 1.8 µM. The EC50 values of the last two molecules are within 1.5-fold of each other.
